# Data taken from ChEMBL document CHEMBL1141771, “p-Aminoacetophenonic acids produced by a mangrove endophyte: Streptomyces griseus subsp” (J Nat Prod, 2005).
# Calls of active or inactive are those of the source. The rule behind the calls is not given here.
# Test system: K562
# Test: Cytotoxicity against human K562 cells
# Assay type: functional, cell-based
row,Compound,Activity
1,CC(/C=C/C(=O)c1ccc(N)cc1)CC(C)C(=O)O (stereo not given),inactive
2,CC(O)C(/C=C/C=C/C(=O)O)C(C)CC(C)C(O)CC(=O)c1ccc(N)cc1 (stereo not given),inactive
3,C/C(=C\C(C)CC(C)C(O)CC(=O)c1ccc(N)cc1)C(=O)O (stereo not given),inactive

# Test system: HeLa
# Test: Cytotoxicity against human HeLa cells
# Assay type: functional, cell-based
row,Compound,Activity
1,CC(/C=C/C(=O)c1ccc(N)cc1)CC(C)C(=O)O (stereo not given),inactive
2,CC(O)C(/C=C/C=C/C(=O)O)C(C)CC(C)C(O)CC(=O)c1ccc(N)cc1 (stereo not given),inactive
3,C/C(=C\C(C)CC(C)C(O)CC(=O)c1ccc(N)cc1)C(=O)O (stereo not given),inactive

# Test system: L929
# Test: Cytotoxicity against mouse L929 cells
# Assay type: functional, cell-based
row,Compound,Activity
1,CC(/C=C/C(=O)c1ccc(N)cc1)CC(C)C(=O)O (stereo not given),inactive
2,CC(O)C(/C=C/C=C/C(=O)O)C(C)CC(C)C(O)CC(=O)c1ccc(N)cc1 (stereo not given),inactive
3,C/C(=C\C(C)CC(C)C(O)CC(=O)c1ccc(N)cc1)C(=O)O (stereo not given),inactive

# Test system: not listed separately
# Test: Activity of peroxidase
row,Activity,Compound
1,inactive,CC(/C=C/C(=O)c1ccc(N)cc1)CC(C)C(=O)O (stereo not given)
2,inactive,CC(O)C(/C=C/C=C/C(=O)O)C(C)CC(C)C(O)CC(=O)c1ccc(N)cc1 (stereo not given)
3,inactive,C/C(=C\C(C)CC(C)C(O)CC(=O)c1ccc(N)cc1)C(=O)O (stereo not given)

# Test system: not listed separately
# Test: Activity of hydroxysteroid dehydrogenase
row,Activity,Compound
1,inactive,CC(/C=C/C(=O)c1ccc(N)cc1)CC(C)C(=O)O (stereo not given)
2,inactive,CC(O)C(/C=C/C=C/C(=O)O)C(C)CC(C)C(O)CC(=O)c1ccc(N)cc1 (stereo not given)
3,inactive,C/C(=C\C(C)CC(C)C(O)CC(=O)c1ccc(N)cc1)C(=O)O (stereo not given)
